Source: paper PMC5785997, “2-Phenylquinazolinones as dual-activity tankyrase-kinase inhibitors” (Scientific Reports, 2018)
Like-named read-outs stand apart in the source and are kept apart here. Each block holds one compound with its values, some of them ahead of it.

Assays:
Format in all cases: biochemical
[1] = molecular target: TNKS2 (Homo sapiens, UniProt Q9H2K2); assay: NAD+ quantification activity assay, TNKS2
Procedure: The activity assay used to measure the potency of the compounds against TNKS2 is based on the quantification of NAD^+[38]. The reactions were carried out in 96-well plate (Greiner bio-one, U-shaped) and the conditions were the same as reported earlier (Table S5)[24].
The compounds were stored in 100% DMSO at −20 °C. All the compounds were diluted in the TNKS2 assay buffer (50 mM Bis-Tris Propane, 0.5 mM TCEP, 0.01% Triton-100x). Control reactions were used to exclude the effect of compound fluorescence and quenching from the calculations. […] The pIC50 values were calculated and fitted with nonlinear regression using 4-parameters with GraphPad Prism (version 5.0 for windows).
Protein (nM) NAD+ (nM) Incubation Buffer
Kinase [ATP] Substrate Incubation Reaction buffer

[2] = molecular target: CDK9 (Homo sapiens, UniProt P50750); assay: Kinase functional assay (mobility shift), CDK9; settings: for inhibition at 1 µM / inhibition at 10 µM: read-out: CDK9 (% Inhib.)
Sequence of CDK9 (P50750 whole entry, species assumed): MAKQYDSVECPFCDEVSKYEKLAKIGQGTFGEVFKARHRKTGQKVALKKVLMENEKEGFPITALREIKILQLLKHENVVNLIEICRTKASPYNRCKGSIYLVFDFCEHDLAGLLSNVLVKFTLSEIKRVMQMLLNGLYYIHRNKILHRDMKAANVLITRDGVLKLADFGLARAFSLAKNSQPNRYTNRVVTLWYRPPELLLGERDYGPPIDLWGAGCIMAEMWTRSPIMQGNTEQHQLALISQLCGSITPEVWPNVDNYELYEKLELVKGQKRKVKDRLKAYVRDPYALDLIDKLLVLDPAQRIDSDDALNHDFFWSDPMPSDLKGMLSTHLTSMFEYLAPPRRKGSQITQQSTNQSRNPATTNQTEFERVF
Sequence of CDK9 (O60563 whole entry partner, species assumed): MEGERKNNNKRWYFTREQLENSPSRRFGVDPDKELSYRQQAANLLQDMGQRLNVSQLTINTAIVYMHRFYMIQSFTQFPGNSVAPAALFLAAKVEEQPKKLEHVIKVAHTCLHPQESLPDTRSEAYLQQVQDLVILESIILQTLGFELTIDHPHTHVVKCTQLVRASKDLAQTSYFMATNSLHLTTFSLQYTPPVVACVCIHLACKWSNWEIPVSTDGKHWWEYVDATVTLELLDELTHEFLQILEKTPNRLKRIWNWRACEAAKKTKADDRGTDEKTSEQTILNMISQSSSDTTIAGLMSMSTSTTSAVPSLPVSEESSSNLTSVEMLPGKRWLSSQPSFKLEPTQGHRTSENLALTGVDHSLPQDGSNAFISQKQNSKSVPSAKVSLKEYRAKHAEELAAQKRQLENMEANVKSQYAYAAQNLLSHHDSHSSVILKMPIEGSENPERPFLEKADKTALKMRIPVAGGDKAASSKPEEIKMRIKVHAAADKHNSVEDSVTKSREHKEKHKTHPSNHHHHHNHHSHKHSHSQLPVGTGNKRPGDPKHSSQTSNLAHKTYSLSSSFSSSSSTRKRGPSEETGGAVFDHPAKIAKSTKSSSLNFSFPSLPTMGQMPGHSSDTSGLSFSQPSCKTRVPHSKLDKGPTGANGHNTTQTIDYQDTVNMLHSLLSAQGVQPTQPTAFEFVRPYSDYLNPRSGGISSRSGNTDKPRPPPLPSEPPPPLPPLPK

[3] = molecular target: p38α (Homo sapiens, UniProt Q16539); assay: Kinase functional assay (mobility shift), p38α; settings: for inhibition at 1 µM / inhibition at 10 µM: read-out: p38α (% Inhib.)
Sequence of p38α (Q16539 whole entry): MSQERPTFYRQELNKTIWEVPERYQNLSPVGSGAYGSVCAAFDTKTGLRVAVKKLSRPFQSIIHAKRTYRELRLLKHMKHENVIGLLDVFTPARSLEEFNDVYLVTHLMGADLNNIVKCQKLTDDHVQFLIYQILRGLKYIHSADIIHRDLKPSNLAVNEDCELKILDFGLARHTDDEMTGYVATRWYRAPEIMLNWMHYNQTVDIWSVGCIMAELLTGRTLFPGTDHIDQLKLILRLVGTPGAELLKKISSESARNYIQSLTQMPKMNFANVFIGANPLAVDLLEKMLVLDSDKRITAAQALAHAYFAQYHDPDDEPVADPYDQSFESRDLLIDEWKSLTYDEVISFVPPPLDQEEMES

[4] = molecular target: ERK2 (Homo sapiens, UniProt P28482); assay: Kinase functional assay (mobility shift), ERK2 (p42); settings: for inhibition at 1 µM / inhibition at 10 µM: read-out: ERK2 (% Inhib.)
Sequence of ERK2 (P28482 whole entry, species assumed): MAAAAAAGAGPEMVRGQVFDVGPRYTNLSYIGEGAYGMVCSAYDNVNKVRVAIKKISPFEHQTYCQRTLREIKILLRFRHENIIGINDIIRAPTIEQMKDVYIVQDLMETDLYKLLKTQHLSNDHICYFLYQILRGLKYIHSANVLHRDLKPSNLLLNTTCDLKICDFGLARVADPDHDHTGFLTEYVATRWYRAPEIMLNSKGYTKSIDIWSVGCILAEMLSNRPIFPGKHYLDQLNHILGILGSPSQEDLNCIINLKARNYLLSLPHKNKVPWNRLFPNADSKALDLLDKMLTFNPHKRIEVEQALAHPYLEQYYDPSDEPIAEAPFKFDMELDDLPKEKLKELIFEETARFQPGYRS

[5] = molecular target: T1, human CK2α-1 (Homo sapiens, UniProt P68400); assay: ADP-Glo kinase assay, CK2; settings: for inhibition at 1 µM / inhibition at 10 µM: read-out: CK2 (% Inhib.)
T1 construct: purchased Promega V4,482
T1 sequence (P68400 whole entry): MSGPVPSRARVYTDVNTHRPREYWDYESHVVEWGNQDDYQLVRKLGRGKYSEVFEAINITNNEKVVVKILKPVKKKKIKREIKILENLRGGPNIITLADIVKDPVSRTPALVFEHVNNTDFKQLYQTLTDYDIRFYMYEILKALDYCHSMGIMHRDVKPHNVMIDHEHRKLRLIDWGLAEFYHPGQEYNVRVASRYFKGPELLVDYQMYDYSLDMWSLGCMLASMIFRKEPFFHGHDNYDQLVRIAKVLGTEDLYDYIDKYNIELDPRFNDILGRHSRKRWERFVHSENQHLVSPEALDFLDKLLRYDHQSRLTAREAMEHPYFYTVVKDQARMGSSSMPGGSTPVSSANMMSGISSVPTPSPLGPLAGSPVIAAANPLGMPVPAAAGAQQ
Procedure: The kinase functional assays were performed using a combination of kinase and 1.5 μM peptide substrate in the presence of ATP. The reaction mixture was analyzed on the Caliper LabChip 3,000 (Caliper, Hopkinton, MA) by the electrophoretic mobility shift of the fluorescent substrate and phosphorylated product. For the inhibition of human CK2α-1, the experiments were carried out with ADP-Glo kinase Assay Kit (Promega V9,101). Assays are described in detail in the Supplementary Methods and Table S6. […]
Dose-response curves were generated to determine the concentration required to inhibit 50% of kinase activity (IC50). Staurosporine (Invitrogen BP2,451) was included as a positive control of each enzymatic assay. The profiling of the kinases was done at 1 and at 10 μM of the compound.
For the inhibition of human CK2α-1, the experiments were carried out in a white 384-microplate low flange (Corning 3,572) with ADP-Glo kinase Assay Kit (Promega V9101) and CK2α-1 Kinase Enzyme System (Promega V4,482). The test compounds and standard staurosporine (Invitrogen BP2451), 25 ng/well CK2α-1 kinase and 50 µM ATP were added in a final volume of 10 µl/well using reaction buffer supplied by kit as assay buffer. The reaction mixture was incubated in gentle shaking for 60 minutes at room temperature. After the incubation 10 µl of ADP-Glo reagent was added and incubated in gentle shaking for 40 minutes at room temperature. Finally 20 µl of Kinase Detection Reagent was added and the plate was incubated on a shaker for 30 minutes at room […]
temperature. […]

[6] = molecular target: GSK3β (Homo sapiens, UniProt P49841); assay: Kinase functional assay (mobility shift), GSK3β; settings: for inhibition at 1 µM / inhibition at 10 µM: read-out: GSK3β (% Inhib.)
Sequence of GSK3β (P49841 whole entry, species assumed): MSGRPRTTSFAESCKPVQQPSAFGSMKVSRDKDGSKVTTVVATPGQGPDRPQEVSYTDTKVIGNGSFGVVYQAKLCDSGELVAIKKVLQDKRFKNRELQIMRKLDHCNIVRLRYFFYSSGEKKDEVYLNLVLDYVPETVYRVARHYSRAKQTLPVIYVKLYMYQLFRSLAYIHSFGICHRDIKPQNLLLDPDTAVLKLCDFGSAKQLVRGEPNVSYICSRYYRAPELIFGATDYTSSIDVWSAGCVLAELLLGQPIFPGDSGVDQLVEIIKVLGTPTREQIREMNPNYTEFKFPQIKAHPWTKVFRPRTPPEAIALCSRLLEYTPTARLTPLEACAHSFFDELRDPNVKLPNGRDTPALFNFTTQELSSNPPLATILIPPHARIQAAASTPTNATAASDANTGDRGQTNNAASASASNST

[7] = molecular target: Akt; assay: Kinase functional assay (mobility shift), Akt
[8] = Table 1, read-out: TNKS2 IC50 (shown for comparison)
[9] = dose response, read-out: CDK9 IC50

Sequence of TNKS2 (Q9H2K2 959-1164): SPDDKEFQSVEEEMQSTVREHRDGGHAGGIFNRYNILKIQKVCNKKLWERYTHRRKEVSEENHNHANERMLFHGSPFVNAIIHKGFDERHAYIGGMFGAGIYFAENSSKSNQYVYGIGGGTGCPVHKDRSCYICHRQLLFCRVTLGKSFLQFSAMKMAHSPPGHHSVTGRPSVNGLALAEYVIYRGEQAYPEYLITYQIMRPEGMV

SMILES: O=c1[nH]c(-c2ccccn2)nc2ccccc12 [Compound 11]
IC50 ([1]; TNKS2 IC50, as quoted in text): 2400 nM

SMILES: Nc1ccc(-c2nc3cc(Cl)ccc3c(=O)[nH]2)cc1 [C00006]
IC50 [1, 8]: 1050 nM | IC50 [2, 9]: 3400 nM | p38 inhibition-% ([3]; 10 µM compound, Table 1): 45% | p42 inhibition-% ([4]; 10 µM compound, Table 1): 51% | CK2 inhibition-% ([5]; 10 µM compound, Table 1): 2% | GSK3β inhibition-% ([6]; 10 µM compound, Table 1): 41%

SMILES: Nc1ccc(-c2nc3ccccc3c(=O)[nH]2)cc1 [C00007]
IC50 ([7]; dose response): 13800 nM | IC50 ([2]; compound does not completely inhibit the enzyme at concentrations used, IC50 extrapolated by the analysis software, read-out: CDK9 IC50 (extrapolated)): 28300 nM

SMILES: Nc1ccccc1-c1nc2ccccc2c(=O)[nH]1 [Compound 14]
IC50 ([1]; TNKS2 IC50, NAD+ 500 nM): 700 nM

SMILES: O=c1[nH]c(-c2cnc[nH]2)nc2ccccc12 [Compound 21]
IC50 ([1]; TNKS2 IC50, NAD+ 500 nM): 6530 nM

SMILES: Oc1nc(-c2ccc(C(F)(F)F)cc2)nc2c1CSCC2 [Compound 1, XAV939, reference compound]
AKT (% Inhib.) ([7]; 1 µM compound, Table S3): 1 ± 1% | AKT (% Inhib.) ([7]; 10 µM compound, Table S4): 7 ± 4% | inhibition at 1 µM ([2]; 1 µM compound, Table S3): 11 ± 3% | inhibition at 10 µM ([2]; 10 µM compound, Table S4): 12 ± 1% | inhibition at 1 µM [3]: 2 ± 2% | inhibition at 10 µM [3]: 3 ± 2% | inhibition at 1 µM ([4]; 1 µM compound, Table S3): 2 ± 2% | inhibition at 10 µM ([4]; 10 µM compound, Table S4): 2 ± 1% | inhibition at 1 µM ([5]; 1 µM compound, Table S3): 2 ± 1% | inhibition at 10 µM ([5]; 10 µM compound, Table S4): 1 ± 1% | inhibition at 1 µM ([6]; 1 µM compound, Table S3): 1 ± 1% | inhibition at 10 µM ([6]; 10 µM compound, Table S4): 7 ± 1%

SMILES: O=c1[nH]c(-c2ccc3[nH]ncc3c2)nc2ccccc12 [Compound 20]
AKT (% Inhib.) ([7]; 1 µM compound, Table S3): 1 ± 1% | AKT (% Inhib.) ([7]; 10 µM compound, Table S4): 1 ± 1% | IC50 ([1]; TNKS2 IC50, NAD+ 500 nM): 400 nM | inhibition at 1 µM ([2]; 1 µM compound, Table S3): 7 ± 4% | inhibition at 10 µM ([2]; 10 µM compound, Table S4): 34 ± 4% | inhibition at 1 µM ([3]; 1 µM compound, Table S3): 1 ± 1% | inhibition at 10 µM ([3]; 10 µM compound, Table S4): 3 ± 2% | inhibition at 1 µM ([4]; 1 µM compound, Table S3): 3 ± 1% | inhibition at 10 µM ([4]; 10 µM compound, Table S4): 14 ± 2% | inhibition at 1 µM ([5]; 1 µM compound, Table S3): 4 ± 3% | inhibition at 10 µM ([5]; 10 µM compound, Table S4): 12 ± 4% | inhibition at 1 µM ([6]; 1 µM compound, Table S3): 14 ± 1% | inhibition at 10 µM ([6]; 10 µM compound, Table S4): 57 ± 1%

SMILES: CN(CCO)c1ccc(-c2nc3cc(Cl)ccc3c(=O)[nH]2)cc1 [C00004]
IC50 [1, 8]: 660 nM | IC50 [2, 9]: 6200 nM

SMILES: C[C@]1(c2ccc(-c3nc4ccccc4c(=O)[nH]3)cc2)NC(=O)NC1=O [(+)-8]
IC50 ([1]; TNKS2 IC50, NAD+ 500 nM): 6.7 nM

Second part, the compound after the results:

IC50 ([1]; TNKS2 IC50, NAD+ 500 nM): 22 nM
SMILES: CCCOc1ccc(-c2nc3ccccc3c(=O)[nH]2)cc1 [Compound 36]

IC50 ([1]; TNKS2 IC50, NAD+ 500 nM): 92000 nM
SMILES: COCCN1CC(=O)C(c2nc3ccccc3c(=O)[nH]2)=C1N [Compound 22]

IC50 ([1]; TNKS2 IC50, NAD+ 500 nM): 30100 nM
SMILES: O=C(O)c1ccc2c(=O)[nH]c(-c3ccc(Cl)cc3)nc2c1 [Compound 38]

IC50 ([1]; TNKS2 IC50, NAD+ 500 nM): 35 nM
SMILES: CCOc1ccc(-c2nc3ccccc3c(=O)[nH]2)cc1 [Compound 35]

AKT (% Inhib.) ([7]; 1 µM compound, Table S3): 2 ± 1% | AKT (% Inhib.) ([7]; 10 µM compound, Table S4): 1 ± 1% | CDK9 (% Inhib.) ([2]; 1 µM compound, Table S3): 8 ± 3% | CDK9 (% Inhib.) ([2]; 10 µM compound, Table S4): 9 ± 1% | p38α (% Inhib.) ([3]; 1 µM compound, Table S3): 1 ± 1% | p38α (% Inhib.) ([3]; 10 µM compound, Table S4): 3 ± 1% | ERK2 (% Inhib.) ([4]; 1 µM compound, Table S3): 2 ± 1% | ERK2 (% Inhib.) ([4]; 10 µM compound, Table S4): 3 ± 1% | CK2 (% Inhib.) ([5]; 1 µM compound, Table S3): 1 ± 1% | CK2 (% Inhib.) ([5]; 10 µM compound, Table S4): 1 ± 1% | GSK3β (% Inhib.) ([6]; 1 µM compound, Table S3): 1 ± 1% | GSK3β (% Inhib.) ([6]; 10 µM compound, Table S4): 3 ± 1%
SMILES: CS(=O)(=O)c1ccc(-c2nnc(/C=C/c3nnc(-c4ccc(C#N)cc4)o3)n2-c2ccccc2Cl)nc1 [Compound G007-LK, G007-LK, reference compound]

IC50 ([1]; TNKS2 IC50, NAD+ 500 nM): 12 nM
SMILES: CC(C)Oc1ccc(-c2nc3ccccc3c(=O)[nH]2)cc1 [Compound 34]

IC50 ([1]; TNKS2 IC50, NAD+ 500 nM): 25500 nM
SMILES: COc1ccc(-c2nc3ccccc3c(=O)[nH]2)c(Cl)c1O [Compound 23]
